Reference: PubChem BioAssay AID1963968 (Molecular Pharmacology Branch, DTP, NCI, 2024)

Test system: 945468-187-T-J3-PDC spheroids with HUVEC/MSC, viability
Test: Anticancer human tumor 945468-187-T-J3-PDC patient-derived rectal carcinoma cell line growth inhibition [PI3K]
Conditions: for IC50: curve of first compound; for viability, T/C: stronger effect = lower value
Summary of the method: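 Tumor cells grown as multi-cell spheroids with HUVEC endothelial cells and MSC fibroblast-like stroma were treated with targeted agents combined with inavolisib, alpelisib, duvelisib or copanlisib. Doses fell in half-log steps from near clinical Cmax, else from 10 microM. Viability was measured.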

[1] = second compound 0.0316 µM, first compound 0.0316 µM
[2] = second compound 0.0316 µM, first compound 0.1 µM
[3] = second compound 0.0316 µM, first compound 0.316 µM
[4] = second compound 0.0316 µM, first compound 1 µM
[5] = second compound 0.0316 µM, first compound 3.16 µM
[6] = second compound 0.0316 µM, first compound 10 µM
[7] = second compound 0.1 µM, first compound 0.0316 µM
[8] = second compound 0.1 µM, first compound 0.1 µM
[9] = second compound 0.1 µM, first compound 0.316 µM
[10] = second compound 0.1 µM, first compound 1 µM
[11] = second compound 0.1 µM, first compound 3.16 µM
[12] = second compound 0.1 µM, first compound 10 µM
[13] = second compound 0.316 µM, first compound 0.0316 µM
[14] = second compound 0.316 µM, first compound 0.1 µM
[15] = second compound 0.316 µM, first compound 0.316 µM
[16] = second compound 0.316 µM, first compound 1 µM
[17] = second compound 0.316 µM, first compound 3.16 µM
[18] = second compound 0.316 µM, first compound 10 µM
[19] = second compound 1 µM, first compound 0.0316 µM
[20] = second compound 1 µM, first compound 0.1 µM
[21] = second compound 1 µM, first compound 0.316 µM
[22] = second compound 1 µM, first compound 1 µM
[23] = second compound 1 µM, first compound 3.16 µM
[24] = second compound 1 µM, first compound 10 µM
[25] = second compound 3.16 µM, first compound 0.0316 µM
[26] = second compound 3.16 µM, first compound 0.1 µM
[27] = second compound 3.16 µM, first compound 0.316 µM
[28] = second compound 3.16 µM, first compound 1 µM
[29] = second compound 3.16 µM, first compound 3.16 µM
[30] = second compound 3.16 µM, first compound 10 µM
[31] = second compound 10 µM, first compound 0.0316 µM
[32] = second compound 10 µM, first compound 0.1 µM
[33] = second compound 10 µM, first compound 0.316 µM
[34] = second compound 10 µM, first compound 1 µM
[35] = second compound 10 µM, first compound 3.16 µM
[36] = second compound 10 µM, first compound 10 µM
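Also: spheroids exposed to agents for 7 days before viability read.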
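For viability, T/C in this document: 100% = DMSO vehicle control viability.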

CCCS(=O)(=O)Nc1ccc(F)c(C(=O)c2c[nH]c3ncc(-c4ccc(Cl)cc4)cc23)c1F + CC(Nc1ncnc2nc[nH]c12)c1cc2cccc(Cl)c2c(=O)n1-c1ccccc1
IC50 (second compound 0.0316 µM): 8.2 µM | IC50 (second compound 0.1 µM): > 10 µM | IC50 (second compound 0.316 µM): > 10 µM | IC50 (second compound 1 µM): > 10 µM | IC50 (second compound 3.16 µM): > 10 µM | IC50 (second compound 10 µM): > 10 µM | viability, T/C [1]: 100% | viability, T/C [2]: 96.7% | viability, T/C [3]: 103% | viability, T/C [4]: 101% | viability, T/C [5]: 99.2% | viability, T/C [6]: 39.8% | viability, T/C [7]: 104% | viability, T/C [8]: 95.8% | viability, T/C [9]: 93.8% | viability, T/C [10]: 91.3% | viability, T/C [11]: 111% | viability, T/C [12]: 77.9% | viability, T/C [13]: 102% | viability, T/C [14]: 101% | viability, T/C [15]: 91.7% | viability, T/C [16]: 99.3% | viability, T/C [17]: 98.3% | viability, T/C [18]: 60.6% | viability, T/C [19]: 88.6% | viability, T/C [20]: 92.8% | viability, T/C [21]: 89.4% | viability, T/C [22]: 92% | viability, T/C [23]: 101% | viability, T/C [24]: 68.7% | viability, T/C [25]: 92.6% | viability, T/C [26]: 91.3% | viability, T/C [27]: 102% | viability, T/C [28]: 105% | viability, T/C [29]: 105% | viability, T/C [30]: 56.5% | viability, T/C [31]: 91.3% | viability, T/C [32]: 99.4% | viability, T/C [33]: 94.8% | viability, T/C [34]: 92.2% | viability, T/C [35]: 105% | viability, T/C [36]: 94.1%

CNC(=O)c1ccc(N2C(=S)N(c3ccc(C#N)c(C(F)(F)F)c3)C(=O)C2(C)C)cc1F + CC(Nc1ncnc2nc[nH]c12)c1cc2cccc(Cl)c2c(=O)n1-c1ccccc1
IC50 (second compound 0.0316 µM): > 10 µM | IC50 (second compound 0.1 µM): > 10 µM | IC50 (second compound 0.316 µM): > 10 µM | IC50 (second compound 1 µM): > 10 µM | IC50 (second compound 3.16 µM): > 10 µM | IC50 (second compound 10 µM): > 10 µM | viability, T/C [1]: 101% | viability, T/C [2]: 113% | viability, T/C [3]: 98.4% | viability, T/C [4]: 102% | viability, T/C [5]: 98.4% | viability, T/C [6]: 100% | viability, T/C [7]: 99.7% | viability, T/C [8]: 109% | viability, T/C [9]: 94.1% | viability, T/C [10]: 116% | viability, T/C [11]: 103% | viability, T/C [12]: 106% | viability, T/C [13]: 99.5% | viability, T/C [14]: 93.8% | viability, T/C [15]: 100% | viability, T/C [16]: 108% | viability, T/C [17]: 101% | viability, T/C [18]: 97.1% | viability, T/C [19]: 96.5% | viability, T/C [20]: 102% | viability, T/C [21]: 107% | viability, T/C [22]: 106% | viability, T/C [23]: 105% | viability, T/C [24]: 94.8% | viability, T/C [25]: 102% | viability, T/C [26]: 113% | viability, T/C [27]: 95% | viability, T/C [28]: 107% | viability, T/C [29]: 92.9% | viability, T/C [30]: 110% | viability, T/C [31]: 99.5% | viability, T/C [32]: 99.2% | viability, T/C [33]: 107% | viability, T/C [34]: 99.2% | viability, T/C [35]: 105% | viability, T/C [36]: 109%
